Data taken from patent US12018011B2, “Macrocyclic compounds and compositions, and methods of preparing and using the same” (Kura Oncology, Inc., priority 2021, dated 2024).

target: T1, Recombinant human farnesyl transferase (FTase) (Homo sapiens, UniProt P49356); assay: FTase fluorescence assay (farnesylation of dansyl-GCVLS peptide); type: biochemical; settings: recombinant human FTase 2.5 nM, Dansyl-GCVLS 85 nM, FPP 30 nM, 30° C., 50 minutes
T1 construct: purchased Crelux (Martinsried, Germany)
Text: T24/83 cell line was purchased from the European Collection of Authenticated Cell Cultures (Salisbury, UK). Recombinant human farnesyl transferase (FTase) and geranylgeranyl transferase type-1 (GGTase) were obtained from Crelux (Martinsried, Germany). Dansyl labelled GCVLS peptide was purchased from Bachem (Torrance, CA), and Dansyl labelled GCVLL peptide was purchased from Bio Synthesis (Lewisville, TX). Farnesyl Pyrophosphate (FPP) and Geranylgeranyl pyrophosphate (GGPP) were purchased from Cayman (Ann Arbor, MI).
Specific biochemical activity of the compounds disclosed herein as FTase inhibitors was determined by measuring the ability of the compounds to block the farnesylation by recombinant FTase of fluorescent (i.e., dansyl-labeled) test substrates derived from the CAAX box of farnesylated proteins, such as the peptide GCVLS.
The IC50 value of the compounds disclosed herein as inhibitors of Ftase and/or GGTase, was determined by measuring the concentration (provided in nM) necessary to achieve inhibition of enzyme activity by 50% (IC50). […] Compounds having a low IC50 value against FTase, for example an IC50 (FTase)<100 nM, such as an IC50 (FTase)<10 nM, are preferred. Compounds having a low IC50 value against FTase and a high IC50 value against GGTase, for example an IC50 (FTase)<100 nM, such as an IC50 (FTase)<10 nM, and an IC50 (GGTase)>100 nM, are potent and selective inhibitors of FTase, and are particularly preferred.
The inhibition activities of the compounds disclosed herein against Ftase and GGTase were measured in the respective fluorescence assays as follows:
For the FTase assay, recombinant human FTase (2.5 nM), Dansyl labelled GCVLS peptide (85 nM), FPP (30 nM) and inhibitor were mixed in assay buffer (50 mM Tris, pH 7.5, 10 mM magnesium chloride, 10 μM zinc chloride, 0.08% CHAPS, 5 mM dithiothreitol) and incubated in a total volume of 20 μL at 30° C. for 50 minutes.
For both the FTase assay and GGTase assay, fluorescence intensity was detected (excitation at 340 nm and emission at 486 nm) using EnVision (PerkinElmer; Waltham, MA), IC50 determinations were performed using a sigmoidal dose-response model with Xlfit software (IDBS, Inc.; Boston, MA), and tipifarnib was used as a positive control. All the assay plates for each assay passed the QC criteria (S/B, Z factor).

| SMILES | IC50 |
| --- | --- |
| Cn1cncc1[C@]1(O)c2ccc(C#N)c(c2)OCCc2cccc(c2)-c2cc(=O)n(C)c3ccc1cc23 (racemic) [(R)-36, (R)-3-hydroxy-2^1-methyl-3-(1-methyl-1H-imidazol-5-yl)-2^2-oxo-2^1,2^2-dihydro-5-oxa-2(4,6)-quinolina-1,4(1,3)-dibenzenacycloheptaphane-4^4-carbonitrile] | > 100 nM |
| Cn1cncc1[C@@]1(N)c2ccc(C#N)c(c2)COc2cccc(c2)-c2cc(OC3COC3)nc3ccc1cc23 [(S)-89, (S)-3-amino-3-(1-methyl-1H-imidazol-5-yl)-2^2-(oxetan-3-yloxy)-6-oxa-2(4,6)-quinolina-1,4(1,3)-dibenzenacyclohexaphane-4^4-carbonitrile] | ≤ 10 nM |
| [2H]C([2H])([2H])n1c(=O)cc2c3cc(ccc31)[C@](O)(c1cncn1C)c1ccc(C#N)c(c1)COc1cccc-2c1 (racemic) [(R)-55, (R)-3-hydroxy-21-(methyl-d3)-3-(1-methyl-1H-imidazol-5-yl)-2^2-oxo-2^1,2^2-dihydro-6-oxa-2(4,6)-quinolina-1,4(1,3)-dibenzenacyclohexaphane-4^4-carbonitrile] | > 100 nM |
| [2H]C([2H])([2H])n1c(=O)cc2c3cc(ccc31)[C@](O)(c1cncn1C)c1ccc(Cl)c(c1)OCCc1cccc-2c1 (racemic) [(R)-28, (R)-4^4-chloro-3-hydroxy-2^1-(methyl-d3)-3-(1-methyl-1H-imidazol-5-yl)-2^1,2^2-dihydro-5-oxa-2(4,6)-quinolina-1,4(1,3)-dibenzenacycloheptaphan-2^2-one] | > 100 nM |
| CNC1(c2nncn2C)c2ccc(Cl)c(c2)COc2cccc(c2)-c2cc(=O)n(C)c3ccc1cc23 (stereo not drawn) [Compound 50, 4^4-chloro-2^1-methyl-3-(4-methyl-4H-1,2,4-triazol-3-yl)-3-(methylamino)-2^1,2^2-dihydro-6-oxa-2(4,6)-quinolina-1,4(1,3)-dibenzenacyclohexaphan-2^2-one] | ≤ 10 nM |
| Cn1cncc1C1(O)c2cccc(c2)CCOc2cccc(c2)-c2cc(=O)n(C)c3ccc1cc23 (stereo not drawn) [Compound 63, 3-hydroxy-2^1-methyl-3-(1-methyl-1H-imidazol-5-yl)-2^1,2^2-dihydro-7-oxa-2(4,6)-quinolina-1,4(1,3)-dibenzenacycloheptaphan-2^2-one] | 10 to 100 nM |
| Cn1cncc1[C@]1(N)c2ccc(C#N)c(c2)COc2cccc(c2)-c2nccc3ccc1cc23 [(R)-86, (R)-3-amino-3-(1-methyl-1H-imidazol-5-yl)-6-oxa-2(1,7)-isoquinolina-1,4(1,3)-dibenzenacyclohexaphane-4^4-carbonitrile] | > 100 nM |
| Cn1cncc1[C@]1(N)c2ccc(Cl)c(c2)OCc2cccc(c2)-c2cc(=O)n(C)c3ccc1cc23 (racemic) [(R)-15, (R)-3-amino-4^4-chloro-2^1-methyl-3-(1-methyl-1H-imidazol-5-yl)-2^1,2^2-dihydro-5-oxa-2(4,6)-quinolina-1,4(1,3)-dibenzenacyclohexaphan-2^2-one] | > 100 nM |
| [2H]C([2H])([2H])n1c(=O)cc2c3cc(ccc31)[C@](N)(c1nncn1C)c1ccc(Cl)c(c1)OCCc1cccc-2c1 (racemic) [(R)-34, (R)-3-amino-4^4-chloro-2^1-(methyl-d3)-3-(4-methyl-4H-1,2,4-triazol-3-yl)-2^1,2^2_ dihydro-5-oxa-2(4,6)-quinolina-1,4(1,3)-dibenzenacycloheptaphan-2^2-one] | > 100 nM |
| [2H]C([2H])([2H])OC1(c2nncn2C)c2ccc(Cl)c(c2)OCCc2cccc(c2)-c2cc(=O)n(C([2H])([2H])[2H])c3ccc1cc23 (stereo not drawn) [Compound 33, 4^4-chloro-3-(methoxy-d3)-2^1-(methyl-d3)-3-(4-methyl-4H-1,2,4-triazol-3-yl)-2^1,2^2-dihydro-5-oxa-2(4,6)-quinolina-1,4(1,3)-dibenzenacycloheptaphan-2^2-one] | 10 to 100 nM |
| [2H]C([2H])([2H])n1c(=O)cc2c3cc(ccc31)[C@@H](n1cncc1C)c1ccc(Cl)c(c1)COc1cccc-2c1 [(R)-76, (R)-4^4-chloro-2^1-(methyl-d3)-3-(5-methyl-1H-imidazol-1-yl)-2^1,2^2-dihydro-6-oxa-2(4,6)-quinolina-1,4(1,3)-dibenzenacyclohexaphan-2^2-one] | 10 to 100 nM |
| Cn1cncc1[C@]1(N)c2ccc(Cl)c(c2)OCCc2cccc(c2)-c2cc(=O)n(C3CC3)c3ccc1cc23 (racemic) [(R)-30, (R)-3-amino-4^4-chloro-2^1-cyclopropyl-3-(1-methyl-1H-imidazol-5-yl)-2^1,2^2-dihydro-5-oxa-2(4,6)-quinolina-1,4(1,3)-dibenzenacycloheptaphan-2^2-one] | > 100 nM |
| Cn1cncc1C1(O)c2ccc(C#N)c(c2)OCc2cccc(c2)-c2cc(=O)[nH]c3ccc1cc23 (stereo not drawn) [Compound 17, 3-hydroxy-3-(1-methyl-1H-imidazol-5-yl)-2^2-oxo-2^1,2^2-dihydro-5-oxa-2(4,6)-quinolina-1,4(1,3)-dibenzenacyclohexaphane-4^4-carbonitrile] | ≤ 10 nM |
| Cc1cncn1[C@@H]1c2ccc(C#N)c(c2)COc2cccc(c2)-c2cc(C#N)nc3ccc1cc23 [(S)-91, (S)-3-(5-methyl-1H-imidazol-1-yl)-6-oxa-2(4,6)-quinolina-1,4(1,3)-dibenzenacyclohexaphane-2^2,4^4-dicarbonitrile] | > 100 nM |
| COc1cc2c3cc(ccc3n1)C(O)(c1cncn1C)c1ccc(C#N)c(c1)COc1cccc-2c1 (stereo not drawn) [Compound 53, 3-hydroxy-2^2-methoxy-3-(1-methyl-1H-imidazol-5-yl)-6-oxa-2(4,6)-quinolina-1,4(1,3)-dibenzenacyclohexaphane-4^4-carbonitrile] | ≤ 10 nM |
| Cn1cncc1[C@@]1(N)c2ccc(C#N)c(c2)COc2cccc(c2)-c2cc(N3CCOCC3)nc3ccc1cc23 [(S)-66, (S)-3-amino-3-(1-methyl-1H-imidazol-5-yl)-2^2-morpholino-6-oxa-2(4,6)-quinolina-1,4(1,3)-dibenzenacyclohexaphane-4^4-carbonitrile] | ≤ 10 nM |
| Cn1cncc1[C@@]1(N)c2ccc(C#N)c(c2)COc2cccc(c2)-c2nccc3ccc1cc23 [(S)-86, (S)-3-amino-3-(1-methyl-1H-imidazol-5-yl)-6-oxa-2(1,7)-isoquinolina-1,4(1,3)-dibenzenacyclohexaphane-4^4-carbonitrile] | ≤ 10 nM |
| Cn1cncc1[C@]1(O)c2ccc(C#N)c(c2)OCc2cccc(c2)-c2cc(=O)n(C)c3ccc1cc23 (racemic) [(R)-18, (R)-3-hydroxy-2^1-methyl-3-(1-methyl-1H-imidazol-5-yl)-2^2-oxo-2^1,2^2-dihydro-5-oxa-2(4,6)-quinolina-1,4(1,3)-dibenzenacyclohexaphane-4^4-carbonitrile] | > 100 nM |
| Cn1cncc1C1(O)c2ccc(Br)c(c2)COc2cccc(c2)-c2cncc3ccc1cc23 (stereo not drawn) [Compound 83, 4^4-bromo-3-(1-methyl-1H-imidazol-5-yl)-6-oxa-2(4,6)-isoquinolina-1,4(1,3)-dibenzenacyclohexaphan-3-ol] | ≤ 10 nM |
| Cn1cncc1[C@]1(N)c2ccc(C#N)c(c2)OCCc2cccc(c2)-c2cc(=O)n(C)c3ccc1cc23 (racemic) [(R)-37, (R)-3-amino-2^1-methyl-3-(1-methyl-1H-imidazol-5-yl)-2^2-oxo-2^1,2^2-dihydro-5-oxa-2(4,6)-quinolina-1,4(1,3)-dibenzenacycloheptaphane-4^4-carbonitrile] | > 100 nM |
| COc1cc2c3cc(ccc3n1)C(O)(c1cncn1C)c1ccc(C#N)c(c1)CCc1cccc-2c1 (stereo not drawn) [Compound 5, 3-hydroxy-2^2-methoxy-3-(1-methyl-1H-imidazol-5-yl)-2(4,6)-quinolina-1,4(1,3)-dibenzenacyclohexaphane-4^4-carbonitrile] | ≤ 10 nM |
| Cn1cnnc1[C@]1(N)c2ccc(Cl)c(c2)COc2cccc(c2)-c2cc(=O)n(C)c3ccc1cc23 (racemic) [(R)-51, (R)-3-amino-4^4-chloro-2^1-methyl-3-(4-methyl-4H-1,2,4-triazol-3-yl)-2^1,2^2-dihydro-6-oxa-2(4,6)-quinolina-1,4(1,3)-dibenzenacyclohexaphan-2^2-one] | > 100 nM |
| Cn1cnnc1C1(O)c2ccc(Cl)c(c2)OCCc2cccc(c2)-c2cc(=O)[nH]c3ccc1cc23 (stereo not drawn) [Compound 31, 4^4-chloro-3-hydroxy-3-(4-methyl-4H-1,2,4-triazol-3-yl)-2^1,2^2-dihydro-5-oxa-2(4,6)-quinolina-1,4(1,3)-dibenzenacycloheptaphan-2^2-one] | 10 to 100 nM |
| Cn1cncc1[C@]1(N)c2ccc(C#N)c(c2)COc2cccc(c2)-c2cc(OC3COC3)nc3ccc1cc23 [(R)-89, (R)-3-amino-3-(1-methyl-1H-imidazol-5-yl)-2^2-(oxetan-3-yloxy)-6-oxa-2(4,6)-quinolina-1,4(1,3)-dibenzenacyclohexaphane-4^4-carbonitrile] | 10 to 100 nM |
